Measured values published in patent US9428452B2, “Compounds” (Glaxo Group Limited, priority 2012, dated 2016).
Marks after values point to notes of the source that are not given here.

What was measured:
IL-17F mRNA expression = assay: Ex-vivo human skin model, IL-17F mRNA expression; type: cell-based; details: for Percentage of inhibition of IL-17F mRNA expression: Th17 cytokine cocktail 24 h, RT-PCR
Protocol: (§1) Fresh ex vivo human skin from healthy bariatric patients, that underwent abdominoplasty skin removal, was de-fatted and dermatomed at 750 μm. Dermatomed skin was incubated twice for 5-10 minutes at room temperature in PBS containing a antibiotic/antimycotic solution: Fungizone (Invitrogen #15290018), PSG (Fisher #BW17718R) and Gentamicin (Invitrogen #15750060). Skin was treated aseptically from this point on. Individual skin samples were obtained by 10 mm punch biopsy and placed in a 0.4 μm PCF membrane transwell (Millicell #PIHP01250) containing 30 μl of a 64% bovine collagen solution. After a 30 minute incubation at 37° C., which allows the collagen solution time to set, skin samples on transwells were transferred to 6-well plates (1 sample per well) and the lower chamber filled with 1 ml complete media (Cornification Media)+hydrocortisone (final concentration of 0.4 μg/ml) with or without test compounds at 10 μM (day −3) and allowed to rest overnight (16-18 h) at 37° C. Next, media was aspirated from the lower chamber, replaced with 1 ml complete media without hydrocortisone and incubated at 37° C. for 1 h. This constituted a ‘wash’ step. Following the hydrocortisone washout, media was again aspirated from the lower chamber and replaced with 1.0 ml complete media without hydrocortisone with or without GSK compounds at 10 μM (day −2). Cultures were incubated at 37° C. in a humidified chamber and media was refreshed one more day (day-1). The following day (day-0), cultures were stimulated for 24 h with a freshly made Th17 cytokine cocktail (CD3, 1 μg/ml, CD28, 2 μg/ml, IL-1b, 10 ng/ml, IL-6, 5 ng/ml, TGFb, 1 ng/ml, IL-21, 10 ng/ml, anti-IL-4, 1 μg/ml and anti-INFg, 1 μg/ml) with or without test compounds at 10 μM. Upon harvest (day +1), skin samples were minced with a razor blade and transferred to 1.5 ml RNAse-free tubes with 1 ml RNAlater solution until later analysis by RT-PCR (stored at −80 C).
(§2) Total RNA was isolated from about 30-40 mg of tissue using Qiagen's (Cat #74106) Mini RNA Isolation kit. Briefly, tissue was homogenized in the Precellys-24 machine using 300 μL of RLT buffer supplemented with 1% 2-Beta-Mercapto-Ethanol at 6300 rpm for 30 seconds for 6 cycles with a 2-minute ice break. 600 μL of water containing Proteinase K was added to the homogenate and digested at 55 C for 15 minutes. Digested tissue was spun down for 3 minutes at 10,000×g and the supernantant was used for RNA isolation using Qiagen's RNeasy mini columns according to manufacturer's protocol. 100 ng of RNA was used as template in a 20 μL PCR volume using Applied Biosciences RNA-to-CT 1 Step kit (AB Catalog #4392938) as well as the specific TaqMan probe for each gene to be quantified. Life Technologies FAM labeled Probes Catalog Numbers are as follows: ACTb=Hs01060665_g1, IL-17A=Hs00174383_m1, IL-17F=Hs00369400_m1, IL-22=Hs01574154_m1. All probes used (except for ACTb) expand an Exon. Applied Biosciences' Master Mix has a ROX dye internal control. OneStepPlus PCR machine was used for both the RT step and the 40 amplification cycles. RNA levels of gene of interest's relative expression were calculated using the Delta Delta CT formula.
(§3) First delta: Normalized to ACTb gene expression
(§4) Second delta: Normalized to sample 13 (Day 0+DMSO) for the gene of interest.

IL-17A mRNA expression = assay: Ex-vivo human skin model, IL-17A mRNA expression; type: cell-based; details: for Percentage of inhibition of IL-17A mRNA expression: Th17 cytokine cocktail 24 h, RT-PCR
Protocol: as §1, §2, §3, §4

IL-22 mRNA expression = assay: Ex-vivo human skin model, IL-22 mRNA expression; type: cell-based; details: for Percentage of inhibition of IL-22 mRNA expression: Th17 cytokine cocktail 24 h, RT-PCR
Protocol: as §1, §2, §3, §4

[1] = target: T1, Human RORγ Ligand Binding Domain (RORγ-LBD) (Homo sapiens, UniProt P51449); assay: Dual Fluorescence Energy Transfer (FRET) assay: co-activator SRC1(2) peptide interaction with RORγ-LBD; type: biochemical; details: RORγ-LBD / SRC1(2) peptide, read-out: mean pIC50 (converted)
T1 construct: His6 with thrombin site) (N); made in house; host or cells: E. coli BL21(DE3), modified pET21a vector
T1 sequence (P51449 263-518): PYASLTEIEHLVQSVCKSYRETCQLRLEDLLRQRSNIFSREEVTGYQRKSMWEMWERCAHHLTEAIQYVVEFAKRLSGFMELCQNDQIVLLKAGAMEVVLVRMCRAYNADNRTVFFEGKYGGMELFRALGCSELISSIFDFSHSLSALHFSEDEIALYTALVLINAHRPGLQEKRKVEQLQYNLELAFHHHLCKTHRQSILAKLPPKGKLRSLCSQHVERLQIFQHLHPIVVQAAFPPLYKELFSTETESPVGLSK
Text: Dual Fluorescence Energy Transfer (FRET) Assay
This assay is based on the knowledge that nuclear receptors interact with cofactors (transcription factors) in a ligand dependent manner. RORγ is a typical nuclear receptor in that it has an AF2 domain in the ligand binding domain (LBD) which interacts with co-activators.
This assay measures ligand-mediated interaction of the co-activator peptide with the purified bacterial-expressed RORγ ligand binding domain (RORγ-LBD) to indirectly assess ligand binding. RORγ has a basal level of interaction with the co-activator SRC1(2) in the absence of ligand, thus, it is possible to find ligands that inhibit or enhance the RORγ/SRC1(2) interaction.
Human RORγ Ligand Binding Domain (RORγ-LBD) was expressed in E. coli strain BL21(DE3) as an amino-terminal polyhistidine tagged fusion protein. DNA encoding this recombinant protein was sub-cloned into a modified pET21a expression vector (Novagen).
Approximately 50 g E. coli cell pellet was resuspended in 300 mL of lysis buffer (30 mM imidazole pH 7.0 and 150 mM NaCl). Cells were lysed by sonication and cell debris was removed by centrifugation for 30 minutes at 20,000 g at 4° C. […] The clarified lysate was loaded onto a column (XK-26) packed with ProBond Nickel Chelating resin (InVitrogen), pre-equilibrated with 30 mM imidazole pH 7.0 and 150 mM NaCl. After washing to baseline absorbance with the equilibration buffer, the column was developed with a gradient from 30 to 500 mM imidazole pH 7.0. Column fractions containing the RORγ-LBD protein were pooled and concentrated to a volume of 5 mLs. The concentrated protein was loaded onto a Superdex 200 column pre-equilibrated with 20 mM Tris-Cl pH 7.2 and 200 mM NaCl. The fractions containing the desired RORγ-LBD protein were pooled together.
Purified RORγ-LBD was buffer exchanged by exhaustive dialysis [3 changes of at least 20 volumes (>8000×)] against PBS [100 mM NaPhosphate, pH 8 and 150 mM NaCl]. […] The modified RORγ-LBD was dialyzed against 2 buffer changes—TBS pH 8.0 containing 5 mM DTT, 2 mM EDTA and 2% sucrose—each at least 20 times of the volume. The modified protein was distributed into aliquots, frozen on dry ice and stored at −80° C. The biotinylated RORγ-LBD was subjected to mass spectrometric analysis to reveal the extent of modification by the biotinylation reagent.
Biotinylated SRC1(2) solution was prepared by adding an appropriate amount of biotinylated SRC1(2) from the 100 uM stock solution to a buffer containing 10 mM of freshly added DTT from solid to give a final concentration of 40 nM. An appropriate amount of Europium labeled Streptavidin was then added to the biotinylated SRC1(2) solution in a tube to give a final concentration of 10 nM. The tube was inverted gently and incubated for 15 minutes at room temperature. Twenty-fold excess biotin from the 10 mM stock solution was added and the tube was inverted gently and incubated for 10 minutes at room temperature.
Biotinylated RORγ-LBD solution was prepared by adding an appropriate amount of biotinylated RORγ-LBD from the stock solution to a buffer containing 10 mM of freshly added DTT from solid to give a final concentration of 40 nM. An appropriate amount of APC labeled Streptavidin was then added to the biotinylated RORγ-LBD solution in a tube to give a final concentration of 20 nM. The tube was inverted gently and incubated for 15 minutes at room temperature. Twenty-fold excess biotin from the 10 mM stock solution was then added and the tube was inverted gently and incubated for 10 minutes at room temperature.
The reaction mixtures were incubated for 5 minutes. […] The plates were incubated for 1 hour and then read on ViewLux in Lance mode for EU/APC.

[2] = four different donors, compound 10 μM

SMILES: CCc1ccc(N(CC(C)C)S(=O)(=O)c2ccc([C@H](O)CN3CCOCC3)c(CO)c2)cc1 [Example E125, N-(4-ethylphenyl)-4-(1-hydroxy-2-morpholinoethyl)-3-(hydroxymethyl)-N-isobutylbenzenesulfonamide]
- Percentage of inhibition of IL-17F mRNA expression (IL-17F mRNA expression; Skin Donor 1, compound 10 μM): 39%
- Percentage of inhibition of IL-17F mRNA expression (IL-17F mRNA expression; Skin Donor 2, compound 10 μM): 89% *
- Percentage of inhibition of IL-17F mRNA expression (IL-17F mRNA expression; Skin Donor 3, compound 10 μM): 45%
- Percentage of inhibition of IL-17F mRNA expression (IL-17F mRNA expression; Skin Donor 4, compound 10 μM): 80% *
- gene transcription of il17f (result in words) (IL-17F mRNA expression; [2]): inhibited
- Percentage of inhibition of IL-17A mRNA expression (IL-17A mRNA expression; Skin Donor 1, compound 10 μM): 65% *
- Percentage of inhibition of IL-17A mRNA expression (IL-17A mRNA expression; Skin Donor 2, compound 10 μM): 92% *
- Percentage of inhibition of IL-17A mRNA expression (IL-17A mRNA expression; Skin Donor 3, compound 10 μM): 65% *
- Percentage of inhibition of IL-17A mRNA expression (IL-17A mRNA expression; Skin Donor 4, compound 10 μM): 93% *
- gene transcription of il17a (result in words) (IL-17A mRNA expression; [2]): inhibited
- Percentage of inhibition of IL-22 mRNA expression (IL-22 mRNA expression; Skin Donor 1, compound 10 μM): 52% *
- Percentage of inhibition of IL-22 mRNA expression (IL-22 mRNA expression; Skin Donor 2, compound 10 μM): 52%
- Percentage of inhibition of IL-22 mRNA expression (IL-22 mRNA expression; Skin Donor 3, compound 10 μM): 20%
- Percentage of inhibition of IL-22 mRNA expression (IL-22 mRNA expression; Skin Donor 4, compound 10 μM): 70% *
- gene transcription of il22 (result in words) (IL-22 mRNA expression; [2]): inhibited
- IC50 [1]: 31.6 nM
